Assay results from patent publication US9611330B2, “Compositions and methods for cancer and cancer stem cell detection and elimination” (The Regents of the University of California, priority 2011, dated 2017).
“Also recorded” adds a separate entry of the source. Like-named read-outs stand apart in the source and are kept apart here.

Experiments:
[1] = test system: normal human cord blood HSPC; assay: Normal human HSPC in hematopoietic progenitor assays and SL/M2 co-culture; format: cell-based
Method: (§1) Normal or blast crisis CML CD34^+ cells were plated on confluent mitomycin-C treated SL/M2 cells with different doses of PF-04449913, dasatinib, a combination of PF-04449913 and dasatinib, or vehicle for […]. After 1 week of culture, FACS was used to quantify human progenitors and progenitors were FACS sorted into hematopoietic progenitor assays. Colonies were scored after 2 weeks in culture.
(§2) The mouse bone marrow stromal cells lines M2-10B4 (M2) and SL/SL (SL) were provided by StemCell Technologies on behalf of Dr. Donna Hogge in the Terry Fox Laboratory (Vancouver, British Columbia). One day prior to co-culture, the cell lines were treated with mitomycin-C (1 mg/ml) and plated in a 1:1 mixture in total concentration of 100,000/ml. 10,000-20,000 CD34^+ blast crisis CML or normal cells were then plated on adherent SL/M2 stromal cells, cultured for 7 days, and analyzed by FACS as described previously^19. To assess expansion of normal human HS/PCs, irradiated OP9 (M2 clone) stromal cells (20 Gray on a Saxon-Mark1 irradiator) were co-cultured with 50,000 human CD34^+ cord blood. OP9M2 stroma was grown in AlphaMem from Gibco with 20% Hyclone FBS, 1% pen strep glutamine and supplemented with cytokines: […] Flt3.

[2] = target: T1, human SMO (amino acids 181-787) (Homo sapiens, UniProt Q99835); assay: SMO radioligand competition binding assay
T1 construct: V5-His (named only in the vector, pSecTag-FRT/V5-His); expressed in transfected cells; membranes prepared
T1 sequence (Q99835 181-787): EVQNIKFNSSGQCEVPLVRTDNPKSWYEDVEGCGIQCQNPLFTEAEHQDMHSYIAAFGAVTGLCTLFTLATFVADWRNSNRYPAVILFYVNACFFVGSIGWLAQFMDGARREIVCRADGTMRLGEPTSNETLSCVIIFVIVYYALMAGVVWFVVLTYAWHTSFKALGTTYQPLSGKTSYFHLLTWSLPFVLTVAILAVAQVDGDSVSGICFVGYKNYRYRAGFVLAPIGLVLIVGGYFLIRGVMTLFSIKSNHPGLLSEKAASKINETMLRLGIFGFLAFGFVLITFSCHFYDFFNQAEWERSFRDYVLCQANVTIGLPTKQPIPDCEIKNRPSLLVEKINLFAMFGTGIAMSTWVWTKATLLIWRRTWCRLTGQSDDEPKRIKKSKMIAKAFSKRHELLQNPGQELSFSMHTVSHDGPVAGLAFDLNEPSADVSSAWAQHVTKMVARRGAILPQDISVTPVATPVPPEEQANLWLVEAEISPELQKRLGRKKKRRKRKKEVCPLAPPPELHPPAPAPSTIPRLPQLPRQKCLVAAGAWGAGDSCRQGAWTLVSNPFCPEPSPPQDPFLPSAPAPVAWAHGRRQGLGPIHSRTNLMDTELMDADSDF
Method: SMO Radioligand Competition Binding Assay
Membranes were prepared from a stable cell line created in HEK293FlpIn-TetR cells (Invitrogen) using Flp recombinase-mediated insertion of the pSecTag-FRT/V5-His vector containing a cDNA encoding amino acids 181-787 of human Smo fused to the murine Igk leader sequence to produce a cell surface expressed […] protein. LacZ-negative cells were analyzed for binding a well characterized cyclopamine-competitive tritiated Smo antagonist^22. The tritiated ligand was prepared using Crabtree's catalyst and tritium gas. The labeled material was purified by RP HPLC (53.1 Ci/mmol specific activity at 99% purity). For the binding competition assay, 100 μl of assay buffer was added to all the wells of a 96 well GF/B filter plate (Millipore MULTISCREEN-HTS-FB™ cat # MSFBN6B50). The plates were counted in a TOPCOUNT™ scintillation counter (Perkin Elmer). Data analysis uses EXCEL™ for % Inhibition and GRAPHPAD PRISM™ for IC50 calculation.

[3] = test system: Shh stimulated luciferase expression under an 8× Gli-response element; assay: Mouse embryonic fibroblast Gli-luciferase reporter assay (Gli-Luc MEFs); format: cell-based; settings: n=5, read-out: IC50, inhibition of Shh stimulated luciferase reporter activity in Gli-Luc MEFs
Excerpt: Mouse Embryonic Fibroblast Gli-Luciferase Assay Mouse Embryonic Fibroblasts expressing luciferase under control of an 8× Gli-response element (Gli-Luc MEFs)^23 were obtained from the Pfizer transgenic core facility. Luciferase activity was quantified with an ENVISION™ plate reader (Perkin Elmer). Graphpad Prism was used for data analysis and IC50 calculation.

[4] = test system: Ptch+/−p53+/− medulloblastoma allografts; assay: Mouse medulloblastoma allograft model; format: in vivo; settings: oral dosing
Excerpt: TAQMAN™ primer/probe sets (ABI) for FoxM1 (Mm00514924_ml), Gli1 (Mm00494645_ml), Gli2 (Mm01293117_ml), Mycn (Mm00476449_ml), Ptch1 (Mm00436026_ml), Ptch2 (Mm00436047_ml), Sfrp1 (Mm00489161_ml), Smo (Mm01162710_ml) and mouse GAPDH (4352339E), on the ABI 7900HT instrument. Target gene expression levels were normalized to mouse GAPDH and calibrated to vehicle treated mice to yield the relative quantitation (RQ) value. Selective Shh Inhibition in a Mouse Medulloblastoma Allograft Model Primary medulloblastoma tumors were harvested from Ptch^+/−p53^+/− or Ptch^+/−p53^−/− mice and propagated as allografts in SCID-bg mice 6-8 weeks of age (20 grams). Freshly isolated tumor fragments of approximately 50 mm^3 were surgically implanted subcutaneously into the hind flank region. Body weights and tumor size (length and width) were measured at regular intervals using a caliper and tumor volume was calculated using the formula: length (mm)×width (mm)×width (mm)×0.4. For the tumor growth inhibition studies, cohorts of Ptch^+/−p53^+/− medulloblastoma allograft bearing mice with tumors ranging from 200 mm^3 to 1000 mm^3 were dosed daily by oral gavage with vehicle (30% PEG 400/70% PBS) or with PF-04449913 formulated in vehicle.

normal human HSPC = assay: CD34+ cord blood engrafted NSG mice, 14-day treatment; format: in vivo; settings: 100 mg/kg for 14 days
Method: Cg-Prkdc^scid Il2rg^tm1Wjl/SzJ female mice at 7-10 weeks were irradiated sublethally and transplanted with 100K CD34^+ human cord blood cells via retro-orbital injection. Eight weeks after transplantation of cord blood cells, the mice were treated for 14 days with either vehicle, or PF-04449913 via oral gavage.
(§3) Single cell suspensions of bone marrow cells from mice treated with PF-0449913 or vehicle were immunostained with Alexa647-conjugated anti-human CD45 (BioLegend) in 2% fetal bovine serum/PBS followed by live cell staining using the LIVE/DEAD® Fixable Near-IR Dead Cell Stain Kit (Invitrogen). Surface stained cells were then fixed in 70% ethanol overnight. Fixed, surface stained cells were immunostained with FITC-conjugated anti-Ki-67 (Abcam, 1:100) in 0.15% saponin/2% fetal bovine serum/PBS, washed twice in saponin-containing staining media and incubated with 7-AAD (10 μg/mL in 0.1M sodium citrate/5 mM EDTA pH8.0/0.15M NaCl/0.5% BSA/0.02% saponin). Stained samples were analyzed using a FACSARIA™ and FLOWJO™^21.

[5] = test system: human blast crisis CML LSC; format: in vivo
Method: Human Progenitor Primagrafts and Treatment
Equal numbers of primary normal or blast crisis CML CD34^+ cells were transplanted intrahepatically into neonatal RAG2^−/−γc^−/− mice to form primagrafts, according to established methods^1, 3. At 8-12 weeks post-transplant, mice were treated with PF-04449913, Dasatinib, a combination of PF-04449913 and Dasatinib, or drug vehicle for 14 days followed by FACS analysis of human hematopoietic engraftment in hematopoietic tissues.
Nanofluidic phospho-proteomic immunoassay (NPI) experiments were performed with the NANOPRO 1000™ instrument (Cell Biosciences) and all samples were run in triplicate at least. The FIREFLY™ system first performed a charge-based separation (isoelectric focusing). Predicted pIs were calculated with SCANSITE™. Each sample was run on a panel of different pH gradients (pH 5-8) to optimize the resolution of different peak patterns. After separation and photo-activated in-capillary immobilization, GLI-2 was detected using GLI2-specific antibody (Abcam). A β2-microglubulin-specific antibody (β2M; Upstate) was used to normalize the amount of loaded protein. The peaks were quantified by calculating the area under the curve (AUC).
Primagrafts, in vivo Drug Treatment, and Engraftment Analysis
Immunocompromised RAG2^−/−γc^−/− mice were bred and maintained in the UC San Diego Moores Cancer Center vivarium. Neonatal mice were transplanted intrahepatically with normal progenitors or LSC from primary patient samples according to our previously published methods^19. Upon detection of tumor or peripheral blood engraftment, mice were treated daily by oral gavage with vehicle (50% 1,2 Propandiol, 50% HBSS or methylcellulose), PF-04449913 (100 mg/kg dissolved in vehicle), Dasatinib (50 mg/kg dissolved in vehicle), combination of PF-04449913 (100 mg/kg) and dasatinib (50 mg/kg). After treatment, mice were euthanized and single cell suspensions of hematopoietic tissues were analyzed for human engraftment by FACS as described previously^19, 20. Similarly, NOD.
Four vehicle-treated and four PF-04449913-treated samples constituting two sets of four technical replicates. The reads from the four RNA sequencing experiments under each treatment regimen were then combined for analysis of effects of vehicle and PF-04449913-treatment containing a total of 65M and 64M reads, respectively and compared with normal FACS purified cord blood CD34^+CD38^+Lin^− progenitors.
as §3

[6] = test system: blast crisis CML leukemic progenitors (LSC); assay: SL/M2 stromal co-culture of blast crisis CML LSC; format: cell-based, human; settings: 7 days, vs vehicle (DMSO), p=0.047
Method: Stromal Co-Culture and in vitro Drug Treatment
as §1, §2

[7] = cell cycle FACS, bone marrow, 14 days

## CN1CC[C@@H](NC(=O)Nc2ccc(C#N)cc2)C[C@@H]1c1nc2ccccc2[nH]1 [PF-04449913]
[1]; 7 days SL/M2 stromal co-culture
  percentage of normal HSPC: remained constant
[1]; hematopoietic progenitor assays
  differentiation capacity of normal human HSPC: unimpaired
[2]; 4.3 nM+/−5.2 nM, N=5, read-out: IC50, SMO competition binding, value with spread
  IC50: 4.3 nM
[2]; cyclopamine-competitive tritiated SMO antagonist, read-out: IC50, competition with radiolabeled SMO antagonist for binding to human SMO (amino acids 181-787)
  IC50: 4 nM
[3]
  IC50: 6.8 nM
[4]; Ptch1+/−p53+/− allograft model
  medulloblastoma growth: significantly reduce medulloblastoma growth
[4]; Ptch+/−p53+/− allografts
  Shh target gene expression in allograft: decreased Shh target gene expression
Normal human HSPC
  frequency of HSPC, myeloid and lymphoid cell fate commitment: remained comparable to vehicle treated controls
  human hematopoietic cell cycle status: unaltered
[5]; 100 mg/kg daily, 14 days, p=0.006
  spleen weight: significant decrease
[5]; 100 mg/kg oral gavage, 14 days
  body weight: no evidence of weight loss
[5]; 100 mg/kg, 14 days, p=0.056
  GLI1 transcript level in FACS purified progenitors: reductions
[5]; 100 mg/kg, 14 days, p=0.08
  GLI2 transcript level in FACS purified progenitors: reductions
[5]; RNA sequencing of engrafted leukemic progenitors, family wise p-value 0.02
  expression of cell cycle regulators: repression of cell cycle regulators
[5]; RNA sequencing, Fisher exact test p=0.0006
  cell cycle gene isoforms shifting toward normal progenitor splice isoform pattern: 75 of 110
[5]; RNA sequencing, Fisher exact test p=0.0048
  sonic hedgehog pathway isoforms reverting to normal progenitor splice isoform pattern: 37 of 50
[5]; [7]
  fraction of leukemic progenitors in G0: reduced the fraction of leukemic progenitors in G0
  fraction of leukemic progenitors in G1: increase in the G1 fraction
[5]; immunofluorescence and nanoproteomics (p=0.001), vs vehicle
  human GLI protein expression: reduced human GLI protein expression
[6]
  LSC / leukemic progenitor survival: significantly reduced; also recorded: reduction in blast crisis leukemic progenitor survival
